The source of these data is patent US10435361B2, “Kinase inhibitors” (Topivert Pharma Limited, priority 2013, dated 2019).

The structures appear in SMILES notation.

Holding throughout (format): cell-based
Assay [1] has as its system PBMCs. In words: LPS-induced TNFα/IL-8 release in PBMC cells. Conditions: Homo sapiens, assay (b), read-out: IC50 Values for Inhibition of Cytokine Release PBMCs IL-8. Summed up:
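Healthy-donor PBMCs isolated by density gradient were pretreated with compound for 2 h, then stimulated with 1 ng/mL LPS (E. coli 0111:B4) for 24 h at 37° C., 5% CO2. IL-8 and TNFα in supernatants measured by sandwich ELISA.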

The subject of assay [2] is PBMCs. In words: IL-2 and IFN gamma release in CD3/CD28 stimulated PBMC cells. Conditions: Homo sapiens, assay (c). In short, it runs like this:
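Healthy-donor PBMCs, density-gradient isolated, stimulated on plates pre-coated with anti-CD3 (0.3 μg/mL) and anti-CD28 (3 μg/mL) antibodies, with compound, for 3 days under standard culture conditions. IC50 derived from the dose-response curve.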

In a further assay the test system is HT29 cells. In words: IL-1β-induced IL-8 release in HT29 cells. Conditions: Homo sapiens, HT-29, assay (d), read-out: IC50 Values for Inhibition of Cytokine Release HT29 cells IL-8. As to the method:
HT29 cells, a human colon adenocarcinoma cell line, are plated in a 96 well plate (24 hr) and pre-treated with compounds at the desired concentration for 2 hours before addition of 5 ng/mL of IL-1β (Abcam) for 24 hours. Supernatants are harvested for IL-8 quantification by Sandwich ELISA (Duo-set, R&D System). The IC50 is determined from the dose response curve.

In assay [3] the test system is PBMCs. In words: Cell mitosis assay in PBMCs. Conditions: Homo sapiens, PBMC, 5 μg/mL. In short, it runs like this:
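Human PBMCs from healthy donors, density-gradient isolated, stimulated with 2% PHA 48 h, then exposed 20 h to test compounds; demecolcine 0.1 μg/mL added 2 h before harvest. Fixed/permeabilised cells stained for phospho-histone H3 and propidium iodide; mitotic lymphocytes counted by flow cytometry.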

[4] abbreviates: read-out: IC50 Values for Inhibition of Cytokine Release PBMCs IFNγ.
Setting [5] is: read-out: IC50 Values for Inhibition of Cytokine Release PBMCs IL-2.

The term IC50 denotes the concentration that inhibits the measured activity by half. Broadly, the inhibition is the change of the read-out against control, counted positive when it falls. Low values mean little suppression, high ones strong suppression.

For the compound `CNC(=O)c1cc(NC(=O)Nc2ccc(Oc3ccnc(Nc4cc(OC)cc(OCCOCCOCCOC)c4)n3)c3ccccc23)cc(C(C)(C)C)c1` [Example 23, 3-(tert-Butyl)-5-(3-(4-((2-((3-methoxy-5-(2-(2-(2-methoxyethoxy)ethoxy)ethoxy)phenyl)-amino)pyrimidin-4-yl)oxy)naphthalen-1-yl)ureido)-N-methylbenzamide], the IC50 is 2.6 nM with PBMCs [1], 9.1 nM with PBMCs [2] (setting [4]), 17.1 nM in the assay on PBMCs [2] (setting [5]) and 4.7 nM with HT29 cells. The same compound yielded an inhibition at 5 µg/mL with PBMCs [3] of 25.4%.
For `COCCOCCOc1cc(Nc2nccc(Oc3ccc(NC(=O)Nc4cc(C(C)(C)C)cc(NS(C)(=O)=O)c4OC)c4ccccc34)n2)cc(OC)c1` [Example 36, N-(5-(tert-Butyl)-2-methoxy-3-(3-(4-((2-((3-methoxy-5-(2-(2-methoxyethoxy)ethoxy)-phenyl)amino)pyrimidin-4-yl)oxy)naphthalen-1-yl)ureido)phenyl)methanesulfonamide], the IC50 in the assay with PBMCs [1] worked out at 1.8 nM; in the assay with PBMCs [2] (setting [4]) it was 5.7 nM; with PBMCs [2] (setting [5]), 65.3 nM; with HT29 cells, 0.8 nM. This compound returned an inhibition at 5 µg/mL in the assay on PBMCs [3] of 45%.
Consider `C#Cc1cc(Nc2cc(Oc3ccc(NC(=O)Nc4cc(C(C)(C)C)cc(C(=O)NC)c4OC)c4ccccc34)ccn2)cc(C(=O)NCCN2CCOCC2)c1` [Example 39, 5-(tert-Butyl)-3-(3-(4-((2-((3-ethynyl-5-((2-morpholinoethyl)carbamoyl)phenyl)amino)-pyridin-4-yl)oxy)naphthalen-1-yl)ureido)-2-methoxy-N-methylbenzamide], for which the IC50 is 2.5 nM in the assay on PBMCs [1], 9.6 nM with PBMCs [2] (setting [4]), 132 nM in the assay with PBMCs [2] (setting [5]) and 5.3 nM in the assay on HT29 cells. The compound also yielded an inhibition at 5 µg/mL in the assay on PBMCs [3] of 34.7%.
In the case of `COCCOCCOCCOCCOCCOCCOCCOc1cc(Nc2cc(Oc3ccc(NC(=O)Nc4cc(C(C)(C)C)cc(NS(C)(=O)=O)c4OC)c4ccccc34)ccn2)cc(OC)c1` [Example 45, N-(3-(3-(4-((2-((3-(2,5,8,11,14,17,20-Heptaoxadocosan-22-yloxy)-5-methoxyphenyl)-amino)pyridin-4-yl)oxy)naphthalen-1-yl)ureido)-5-(tert-butyl)-2-methoxyphenyl)methane-sulfonamide], the IC50 with PBMCs [1] was determined as 1.4 nM; in the assay on PBMCs [2] (setting [4]), 7.8 nM; with PBMCs [2] (setting [5]), 182 nM; in the assay on HT29 cells, 2.1 nM. The compound also gave an inhibition at 5 µg/mL in the assay on PBMCs [3] of 45%.
As for `C#Cc1cc(Nc2cc(Oc3ccc(NC(=O)Nc4cc(C(C)(C)C)cc(C(N)=O)c4OC)c4ccccc34)ccn2)cc(C(=O)NCCN2CCOCC2)c1` [Example 48, 3-((4-((4-(3-(5-(tert-Butyl)-3-carbamoyl-2-methoxyphenyl)ureido)naphthalen-1-yl)oxy)pyridin-2-yl)amino)-5-ethynyl-N-(2-morpholinoethyl)benzamide], the IC50 in the assay with PBMCs [1] was found to be 3.4 nM; in the assay on PBMCs [2] (setting [4]), 17.2 nM; with PBMCs [2] (setting [5]), 144 nM; in the assay on HT29 cells, 10.2 nM. Moreover, 5 µg/mL produced 44.2% inhibition in the assay on PBMCs [3].
With `C#Cc1cc(Nc2cc(Oc3ccc(NC(=O)Nc4cc(C(C)(C)C)cc(NS(C)(=O)=O)c4OC)c4ccccc34)ccn2)cc(C(=O)NCCN2CCOCC2)c1` [Example 49, 3-((4-((4-(3-(5-(tert-Butyl)-2-methoxy-3-(methylsulfonamido)phenyl)ureido)naphthalen-1-yl)oxy)pyridin-2-yl)amino)-5-ethynyl-N-(2-morpholinoethyl)benzamide], the IC50 with PBMCs [1] turned out to be 2.5 nM; in the assay on PBMCs [2] (setting [4]), 11 nM; in the assay on PBMCs [2] (setting [5]), 227 nM; in the assay with HT29 cells, 8.6 nM. Also, in the assay with PBMCs [3], at 5 µg/mL the inhibition was 40.1%.
`COCCOCCOCCOc1cc(Nc2nccc(Oc3ccc(NC(=O)Nc4cc(C(C)(C)C)cc(C(=O)NC5COC5)c4OC)c4ccccc34)n2)cc(OC)c1` [Example 51, 5-(tert-Butyl)-2-methoxy-3-(3-(4-((2-((3-methoxy-5-(2-(2-(2-methoxyethoxy)ethoxy)-ethoxy)phenyl)amino)pyrimidin-4-yl)oxy)naphthalen-1-yl)ureido)-N-(oxetan-3-yl)-benzamide]: the IC50 amounted to 1.6 nM in the assay with PBMCs [1], 1.8 nM in the assay with PBMCs [2] (setting [4]), 46.3 nM with PBMCs [2] (setting [5]) and 1.7 nM in the assay with HT29 cells. The compound also registered an inhibition at 5 µg/mL in the assay with PBMCs [3] of 44.3%.
As to `C#Cc1cc(Nc2cc(Oc3ccc(NC(=O)Nc4cc(C(C)(C)C)cc(NS(C)(=O)=O)c4OC)c4ccccc34)ccn2)cc(C(=O)NCCOCCOC)c1` [Example 52, 3-((4-((4-(3-(5-(tert-Butyl)-2-methoxy-3-(methylsulfonamido)phenyl)ureido)naphthalen-1-yl)oxy)pyridin-2-yl)amino)-5-ethynyl-N-(2-(2-methoxyethoxy)ethyl)benzamide], the IC50 with PBMCs [1] turned out to be 2.4 nM; in the assay on PBMCs [2] (setting [4]), 39 nM; in the assay with PBMCs [2] (setting [5]), 205 nM; in the assay on HT29 cells, 17.3 nM. This compound returned an inhibition at 5 µg/mL with PBMCs [3] of 31%.
For the compound `COCCOCCOCCOc1cc(Nc2nccc(Oc3ccc(NC(=O)Nc4cc(C(C)(C)C)cc(-c5cnn[nH]5)c4OC)c4ccccc34)n2)cc(OC)c1` [Example 70, 1-(5-(tert-Butyl)-2-methoxy-3-(1H-1,2,3-triazol-5-yl)phenyl)-3-(4-((2-((3-methoxy-5-(2-(2-(2-methoxyethoxy)ethoxy)ethoxy)phenyl)amino)pyrimidin-4-yl)oxy)naphthalen-1-yl)urea], the IC50 in the assay with PBMCs [1] is 4.9 nM; in the assay on PBMCs [2] (setting [4]), 7.4 nM; with HT29 cells it was 4.1 nM.
`COCCOCCOCCOc1cc(Nc2nccc(Oc3ccc(NC(=O)Nc4cc(C(C)(C)C)cc(NS(=O)(=O)C5CCCCC5)c4OC)c4ccccc34)n2)cc(OC)c1` [Example 72, N-(5-(tert-Butyl)-2-methoxy-3-(3-(4-((2-((3-methoxy-5-(2-(2-(2-methoxyethoxy)ethoxy)-ethoxy)phenyl)amino)pyrimidin-4-yl)oxy)naphthalen-1-yl)ureido)phenyl)cyclohexane-sulfonamide]: the IC50 worked out at 11.8 nM with PBMCs [1] and 19.2 nM with HT29 cells.
As for `COCCOCCOCCOc1cc(Nc2nccc(Oc3ccc(NC(=O)Nc4cc(C(C)(C)C)cc(NS(=O)(=O)N5CCCCC5)c4OC)c4ccccc34)n2)cc(OC)c1` [Example 73, N-(5-(tert-Butyl)-2-methoxy-3-(3-(4-((2-((3-methoxy-5-(2-(2-(2-methoxyethoxy)ethoxy)-ethoxy)phenyl)amino)pyrimidin-4-yl)oxy)naphthalen-1-yl)ureido)phenyl)piperidine-1-sulfonamide], the IC50 was found to be 19 nM with PBMCs [1] and 31.6 nM with HT29 cells.
With `COCCOCCOCCOc1cc(Nc2nccc(Oc3ccc(NC(=O)Nc4cc(C(C)(C)C)cc(NS(=O)(=O)N(C)C)c4OC)c4ccccc34)n2)cc(OC)c1` [Example 74, N-(5-(tert-Butyl)-2-methoxy-3-(3-(4-((2-((3-methoxy-5-(2-(2-(2-methoxyethoxy)ethoxy)-ethoxy)phenyl)amino)pyrimidin-4-yl)oxy)naphthalen-1-yl)ureido)phenyl)dimethylamino-sulfonamide], the figures for the IC50 with PBMCs [1] and in the assay on HT29 cells were 6.6 nM and 11.7 nM, respectively.
